Where a name gives a salt, the structure may show the parent alone. Read-outs that look alike come from different tables or passages of the source. Residues, ends and D or L forms follow the SMILES beside them. *: point of attachment. Cbz = O=C(OCc1ccccc1)*
Test system: murine neural precursor cells (neurosphere cultures)
Test: HTS of LOPAC library against secondary neurosphere cultures, MTT proliferation assay at 3 μM, day 7 (z score, P value)
Assay type: cell-based, mouse
[1] = yes/no: significantly inhibited neurosphere proliferation (P<0.01) in primary screen
[2] = LOPAC primary screen, neurosphere MTT proliferation, 3 μM, day 7
[3] = yes = significantly inhibited neurosphere proliferation (P<0.01) in the primary screen
[4] = yes/no: significantly inhibited neurosphere proliferation (P<0.01) in the primary screen
[5] = LOPAC library screen at 3 μM, secondary neurosphere cultures, MTT
[6] = LOPAC library screen, 3 μM, MTT, neurosphere cultures
[7] = LOPAC library screen at 3 μM, MTT, secondary neurosphere cultures, screened in singlets
[8] = LOPAC library screen, 3 μM, MTT, secondary neurosphere cultures, day 7

Row | Compound | Activity [1] | Z Score | Z score [2] | Activity [3] | other results
1 | NC(=O)CC[C@H](N)C(=O)O [L-Glutamine] | no |  |  |  | Z Score (168 h, 3 µM): 0.8278; Z score (168 h, 3 µM): 0.828
2 | Cl.N[C@@H](Cc1c[nH]cn1)C(=O)O [L-Histidine hydrochloride] | no | −1.421 | −1.421 |  | 
3 | CC(C)C[C@H](N)CSSC[C@@H](N)CC(C)C.Cl.Cl [L-Leucinethiol, oxidized dihydrochloride] | no | −0.584 | −0.584 |  | 
4 | CC(=N)NCCC[C@H](N)C(=O)O.Cl [L-N5-(1-Iminoethyl)ornithine hydrochloride] | no | −0.9339 | −0.934 |  | 
5 | CC(=N)NCCCC[C@H](N)C(=O)O.Cl [L-N6-(1-Iminoethyl)lysine hydrochloride] | no | −0.3809 | −0.381 |  | 
6 | N[C@@H](Cc1c[nH]c2ccccc12)C(=O)O [L-Tryptophan] |  | 0.2241 |  |  | Activity: no; Z score: 0.224
7 | C=CC[C@H](N)C(=O)O [L-allylglycine] |  |  |  |  | Z Score (168 h, 3 µM): −1.155; Z score (168 h, 3 µM): −1.155; Activity (yes/no: significantly inhibited neurosphere proliferation in the primary screen): no
8 | C[C@](N)(Cc1ccc(O)c(O)c1)C(=O)O [L-alpha-Methyl DOPA] |  | −0.897 | −0.897 | no | 
9 | C[C@](N)(Cc1ccc(O)cc1)C(=O)O [L-alpha-Methyl-p-tyrosine] |  | −1.8 | −1.800 | no | 
10 | O=C(O)[C@@H]1CCN1 [L-azetidine-2-carboxylic acid] |  | 0.9837 | 0.984 |  | Activity (yes/no: significantly inhibited neurosphere proliferation in primary screen): no
11 | CN1CCc2ccccc2Cc2[nH]c3ccccc3c2CC1 [LE 300] |  | −1.07 |  |  | Activity: no; Z score: −1.070
12 | C/C(O)=C(\C#N)C(=O)Nc1cc(Br)ccc1Br [LFM-A13] | no | 4.5 | 4.500 |  | 
13 | CC(O)C(C)OC(=O)[C@@H]1C[C@@H]2c3cccc4c3c(cn4C(C)C)C[C@H]2N(C)C1.O=C(O)/C=C\C(=O)O (some centres unmarked) [LY-53,857 maleate] |  | −0.3382 | −0.338 |  | Activity [4]: no
14 | CN1C2CCC1CC(NC(=O)c1nn(C)c3ccccc13)C2.O=C(O)/C=C\C(=O)O (centres unmarked) [LY-278,584 maleate] |  | −1.074 | −1.074 | no | 
15 | Cl.O=c1cc(N2CCOCC2)oc2c(-c3ccccc3)cccc12 [LY-294,002 hydrochloride] | no | −1.217 | −1.217 |  | 
16 | CC(CCc1ccccc1)NCC(O)c1ccc(O)c(C(N)=O)c1 (centres unmarked) [Labetalol hydrochloride] |  |  | −1.097 |  | Activity: no; Z Score [5]: −1.097
17 | Nc1nnc(-c2cccc(Cl)c2Cl)c(N)n1 [Lamotrigine] | no |  | −1.095 |  | Z Score [5]: −1.095
18 | Cc1c(OCC(F)(F)F)ccnc1C[S+]([O-])c1nc2ccccc2[nH]1 (centres unmarked) [Lansoprazole] | no |  | −0.034 |  | Z Score [6]: −0.0336
19 | Cc1oncc1C(=O)Nc1ccc(C(F)(F)F)cc1 [Leflunomide] | no |  | 4.103 |  | Z Score [7]: 4.103
20 | C=CCN1CC[C@]23CCCC[C@H]2[C@H]1Cc1ccc(O)cc13 [Levallorphan tartrate] |  |  | −0.346 | no | Z Score [5]: −0.3465
21 | CC[N+](C)(CC)CC(=O)Nc1c(C)cccc1C.[Cl-] [Lidocaine N-methyl hydrochloride] | no |  | −0.683 |  | Z Score [5]: −0.6828
22 | CCN(CC)CC(=O)Nc1c(C)cccc1C [Lidocaine hydrochloride] | no |  | −0.111 |  | Z Score [5]: −0.1111
23 | O=C1N(c2ccccc2)c2ccccc2C1(Cc1ccncc1)Cc1ccncc1 [Linopirdine] |  |  | −0.553 | no | Z Score [5]: −0.5525
24 | [Cl-].[Li+] [Lithium Chloride] | no | −0.9113 | −0.911 |  | 
25 | CCn1cc(C(=O)O)c(=O)c2cc(F)c(N3CCNC(C)C3)c(F)c21 (centres unmarked) [Lomefloxacin hydrochloride] |  |  | 0.137 |  | Activity: no; Z Score [6]: 0.1374
26 | O=C(O)c1nn(Cc2ccc(Cl)cc2Cl)c2ccccc12 [Lonidamine] | no |  | 0.436 |  | Z Score [6]: 0.4358
27 | CN(C)C(=O)C(CCN1CCC(O)(c2ccc(Cl)cc2)CC1)(c1ccccc1)c1ccccc1 [Loperamide hydrochloride] | no | −0.4976 | −0.498 |  | 
28 | CCOC(=O)N1CCC(=C2c3ccc(Cl)cc3CCc3cccnc32)CC1 [Loratadine] | no |  | −1.823 |  | Z Score [8]: −1.823

Row | Compound | Activity [1] | Z Score | Z score [2] | Activity [3] | other results
29 | CCCCCN(CCCCC)C(=O)C(CCC(=O)O)NC(=O)c1ccc(Cl)c(Cl)c1 (centres unmarked) [Lorglumide sodium] |  |  | −2.092 | no | Z Score [8]: −2.092
30 | CN1CCN(C2=Nc3ccccc3Oc3ccc(Cl)cc32)CC1 [Loxapine succinate] | no | −0.7477 | −0.748 |  | 
31 | O=c1cc(-c2ccc(O)c(O)c2)oc2cc(O)cc(O)c12 [Luteolin] | no |  | −1.323 |  | Z Score [8]: −1.323
32 | O=C(O)/C(=C/c1c(C(=O)O)[nH]c2cc(Cl)cc(Cl)c12)c1ccccc1 [MDL 105,519] |  | 2.565 |  |  | Activity: no; Z score: 2.565
33 | CC(C)[C@H](NC(=O)OCc1ccccc1)C(=O)N[C@H](C=O)Cc1ccccc1 [MDL 28170] (Cbz-Val-Phe-aldehyde) |  |  |  |  | Z Score (168 h, 3 µM): −1.139; Z score (168 h, 3 µM): −1.139
34 | CC[N+](CC)(CC)CCOc1ccc(/C=C/c2ccccc2)cc1 [MG 624] |  |  |  |  | Z Score (168 h, 3 µM): −10.66; Z score (168 h, 3 µM): −10.660; Activity [4]: yes
35 | COc1cc(C(O)CO)ccc1OS(=O)(=O)[O-].[K+] (centres unmarked) [MHPG sulfate potassium] | no | −0.5556 | −0.556 |  | 
36 | CCCCCCCCCCCCCCCCOCC(COCC(F)(F)F)OP(=O)(O)OC (centres unmarked) [MJ33] |  | 1.364 | 1.364 | no | 
37 | CC(C)c1ccc2c(c1)c(SC(C)(C)C)c(CC(C)(C)C(=O)O)n2Cc1ccc(Cl)cc1 [MK-886] |  | −1.549 | −1.549 | no | 
38 | CN1CC[C@]2(CCN3CCc4c(oc5ccccc45)[C@@H]3C2)N(C)C1=O.Cl [MK-912] |  | −0.582 | −0.582 | no | 
39 | O=S(=O)(c1cccc2c(I)cccc12)N1CCCNCC1 [ML-7] |  | −11.27 | −11.274 |  | Activity [4]: yes
40 | CN1C2CCC1CC(OC(=O)c1cc(Cl)cc(Cl)c1)C2 (centres unmarked) [ML-9] |  | −9.322 | −9.322 |  | 
41 | CCCOC(=O)c1c(-c2ccccc2)nc(CC)c(C(=O)SCC)c1CCC [MRS 1523] |  | −0.001312 | −0.001 | no | 
42 | CCCn1c(=O)c2[nH]c(-c3ccc(OCC(=O)Nc4ccc(C#N)cc4)cc3)nc2n(CCC)c1=O [MRS 1754] |  | 0.9268 | 0.927 | no | 
43 | C#CCN1C(C)=C(C(=O)OC)C(c2cccc([N+](=O)[O-])c2)C(C(=O)OCC)=C1C (centres unmarked) [MRS 1845] |  | −0.006196 | −0.006 |  | Activity: no
44 | Cc1nc(N=Nc2ccc(C(=O)O)cc2)c(COP(=O)(O)O)c(C=O)c1O [MRS 2159] |  | −0.2666 | −0.267 | no | 
45 | CNc1ncnc2c1ncn2[C@H]1C[C@H](OP(=O)(O)O)[C@@H](COP(=O)(O)O)O1 [MRS 2179] |  | −1.246 | −1.246 | no | 
46 | CNCCCC12CCC(c3ccccc31)c1ccccc12 [Maprotiline hydrochloride] |  |  | −0.361 | no | Z Score [5]: −0.3615
47 | C[N+](C)(C)CC#CCOC(=O)Nc1cccc(Cl)c1.[Cl-] [McN-A-343] | no | −0.08897 |  |  | Z score (LOPAC screen, neurosphere MTT proliferation, 3 μM, day 7): −0.089
48 | CN(N=O)c1ccc(O)c(O)c1 [Me-3,4-dephostatin] |  | 0.5834 | 0.583 | no | 
49 | CNC1(C)C2CCC(C2)C1(C)C (centres unmarked) [Mecamylamine hydrochloride] |  |  | −2.108 | no | Z Score [8]: −2.108
50 | Cc1ccc(Cl)c(Nc2ccccc2C(=O)O)c1Cl [Meclofenamic acid sodium] |  |  | 2.233 | no | Z Score [7]: 2.233
51 | COc1ccc2[nH]cc(CCNC(C)=O)c2c1 [Melatonin] |  |  | −0.241 | no | Z Score [5]: −0.2407
52 | Cc1cnc(NC(=O)C2=C(O)c3ccccc3S(=O)(=O)N2C)s1 [Meloxicam sodium] |  |  |  | no | 
53 | N[C@@H](Cc1ccc(N(CCCl)CCCl)cc1)C(=O)O [Melphalan] |  | −3.907 | −3.907 |  | Activity [4]: yes
54 | CC12CC3CC(C)(C1)CC(N)(C3)C2 [Memantine hydrochloride] |  |  | −0.141 | no | Z Score [5]: −0.141
55 | CN1C[C@@H](NS(=O)(=O)N(C)C)C[C@@H]2c3cccc4c3c(cn4C)C[C@H]21 [Mesulergine hydrochloride] |  |  | −2.160 |  | Z Score [8]: −2.16; Activity [4]: no
